In PMC5374420, “In Search of Small Molecule Inhibitors Targeting the Flexible CK2 Subunit Interface” (Pharmaceuticals, 2017):
Where a SMILES comes first, the peptide text is derived from it. Bridges are numbered along the chain shown (N, C = ends). The star is where a group is joined. Cbz = O=C(OCc1ccccc1)*; CH2F = FC*

Key:
[1] = target: T1, CK2 holoenzyme (Homo sapiens, UniProt P68400); test: CK2 kinase assay with CK2β-dependent eIF2β-derived peptide substrate; assay type: biochemical; conditions: result in words
T1 construct: made in house
Description: In a previous study, we used the X-ray structure of CK2β in the holoenzyme complex as a template for the design of a conformationally constrained 13-mer peptide (Pc 13) derived from the CK2β C-terminal domain and centred around the Tyr188 and Phe190 hotspots. Pc 13 is an eight-residue peptide (Arg186–His193) that contains a cluster of hydrophobic residues (Leu187, Tyr188 and Ile192) and three additional glycine residues, cyclized via two cysteine residues to ‘staple’ its conformation and to mimic the binding face of CK2β with CK2α [15]. […]
Figure 2 CK2β-derived cyclic peptides inhibit CK2 activity in vitro. […] Phosphorylated proteins were separated by SDS/PAGE (Sodium dodecylsulfate/ Polyacrylamide gel electrophoresis) and analyzed by autoradiography. […]
Figure 4 Inhibitory activity of a TAT-Pc analogue in vitro. […] CK2 activity was then determined with CK2β-dependent or independent peptide substrates; (B) [^35S]-labeled CK2α was incubated with biotinylated MBP-CK2β immobilized on streptavidin coated plates (preformed complex) in the absence (1) or presence (2) of TAT-Pc 13. […] After washing, the amount of [^35S]-labeled CK2α remaining in the complex was determined by radioactivity counting. […]

[2] = tested on: WT MCF-10A cells; test: Cell death / viability, LIVE&DEAD assay, WT cells; assay type: cell-based; conditions: MCF-10A; 20 µM z-VAD or 30 µM Necrostatin-1 for 5 h, then 25 µM TAT-Pc 13 for 4 h
Protocol: (§1) Figure 8 Cellular effects of TAT-Pc 13. (A) MCF-10A cells were incubated with 25 µM of TAT-Pc 13 for 3 h and imaged with phase microscopy (upper panel) or with increasing concentrations of TAT-Pc 13 for 2 h and cell viability was evaluated using the LIVE&DEAD™ assay. Live cells fluoresce bright green (530 nm), whereas dead cells fluoresce red-orange (645 nm) (lower panel, scale bare: 100 µm); (B) WT (○-○) or CK2β-depleted (●-●) MCF-10A cells were incubated for 4 h with increasing concentrations of TAT-Pc 13 and cell death was evaluated using the LIVE&DEAD™ assay recording fluorescence at 645 nm. Representative data shown from two independent experiments in duplicate; (C) MCF-10A cells were pre-treated in the absence or presence of 20 µM z-VAD for 5 h and then incubated for 4 h with 25 µM random TAT-Pc 13 or TAT-Pc 13 and cell viability was evaluated as in (A) (scale bare: 100 µm); and (D) intracellular events induced by increasing concentrations of TAT-Pc 13. After 12 h of treatment, 786-O cells were lysed and analyzed by Western blot. TEXT PRINTED IN THE PICTURE: (B) TAT-Pc 13: TAT-Pc 13 (μM): 48; TAT-Pc 13 (μM): 60 DOUBTS OF THE COPYIST ABOUT THIS PICTURE: Panel B: 48 and 60 are printed in red at the x axis, where dashed lines drop from the two curves at about 50 on the Cell death (%) axis. No measure name (e.g. IC50) is printed with them.
Cells were seeded in 96-well microtiter plates at a concentration of 1 × 10^5 cells/mL and were allowed to attach for 24 h at 37 °C in 5% CO2. Cells were then exposed to different concentrations of TAT-Pc 13 for the indicated time. Cell viability was evaluated using the fluorescence-based LIVE&DEAD™ assay (Molecular Probes, Thermo Fisher Scientific, Courtaboeuf, France) according to the manufacturer. Images were taken with an Apotome-equipped Zeiss Axioimager microscope (Zeiss, Oberkochen, German) recording the fluorescence at 530 nm (Live cells) and 645 nm (dead cells) respectively using a FluoStar Optima plate reader (BMG LabTech, Ortenberg, Germany).

[3] = target: T2, CK2 holoenzyme (CK2α + CK2β) (Homo sapiens, UniProt P68400); test: CK2-mediated phosphorylation of GST-Olig2 and of CK2β (autoradiography); assay type: biochemical; conditions: 25 µM peptide
T2 construct: made in house
Protocol: Figure 2 CK2β-derived cyclic peptides inhibit CK2 activity in vitro. (A) a series of cyclized CK2β-derived peptide analogues varying in length from eight to 11 amino acids were tested for their effect on the phosphorylation of eIF2β-derived peptide substrate whose phosphorylation relies on the holoenzyme formation. Representative data shown from two independent experiments; (B) structure of Pc 11 (CC); (C) antagonist effect of Pc 11 (CC) on CK2-mediated phosphorylation of the CK2β-dependent substrate Olig2. CK2α was incubated alone or with CK2β in the absence or presence of 25 µM random Pc 11 (CC) or Pc 11 (CC) for 15 min at 4 °C, followed by the addition of GST (Gluthatione S-Transferase)-Olig2 (5 μg) and 25 μM [γ-^32P]ATP/MgCl2 for 5 min at room temperature. Phosphorylated proteins were separated by SDS/PAGE (Sodium dodecylsulfate/ Polyacrylamide gel electrophoresis) and analyzed by autoradiography. The gel was stained with coomassie blue to visualize GST-Olig2. TEXT PRINTED IN THE PICTURE: (A) no label printed: IC50 = 1-3 μM DOUBTS OF THE COPYIST ABOUT THIS PICTURE: Panel A: "IC50 = 1-3 μM" is printed once inside the plot, near the falling curves, and is not tied to any one peptide.

[4] = tested on: p21 Thr145 phosphorylation, survivin expression, AKT activation; test: Western blot of intracellular events (AKT, phospho-p21 Thr145, survivin); assay type: cell-based; conditions: 786-O cells, 12 h, increasing concentrations of CX-4945 (Figure S1)
Protocol: This was confirmed using the LIVE&DEAD^TM cell viability assay that provides a visual readout of cell integrity (Figure 8A lower panel). This cellular effect was also analyzed after treatment of WT or CK2β-depleted MCF-10A cells with increasing concentrations of TAT-Pc 13. TAT-Pc 13 caused a cell death in both cell types, which was already detectable at a concentration of 25 µM and became massive at 50–60 µM (Figure 8B). […] In order to investigate the intracellular events induced by TAT-Pc 13, MCF-10A cells were incubated with increasing concentrations of TAT-Pc 13 and analyzed by Western blot.
as §1, with “them. […]” for “them.”

T2 sequence (P68400 whole entry): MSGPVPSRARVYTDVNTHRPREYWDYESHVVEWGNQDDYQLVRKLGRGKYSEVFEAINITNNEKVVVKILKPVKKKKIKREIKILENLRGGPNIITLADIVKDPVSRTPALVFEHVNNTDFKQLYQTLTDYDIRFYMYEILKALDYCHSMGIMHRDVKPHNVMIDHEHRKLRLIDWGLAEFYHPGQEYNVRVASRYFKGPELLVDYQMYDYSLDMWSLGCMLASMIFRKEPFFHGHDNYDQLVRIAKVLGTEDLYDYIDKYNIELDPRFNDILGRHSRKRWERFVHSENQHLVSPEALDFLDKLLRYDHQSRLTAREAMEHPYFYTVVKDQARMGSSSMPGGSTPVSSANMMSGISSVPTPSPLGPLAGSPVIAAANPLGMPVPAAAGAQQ
T1 sequence (P68400 whole entry): as above

## CC(C)C[C@@H]1NC(=O)[C@H](CCCNC(=N)N)NC(=O)[C@@H](N)CSSC[C@@H](C(=O)O)NC(=O)[C@H](CCCCN)NC(=O)[C@H](Cc2ccccc2)NC(=O)CNC(=O)[C@H](Cc2ccc(O)cc2)NC1=O [Pc 8 (CC)] (H-CRLYGFKC-OH; disulfide 1-8)
[1]
  effect on phosphorylation of eIF2β peptide substrate: inactive

## COC(=O)C[C@H](NC(=O)[C@H](C)NC(=O)[C@@H](NC(=O)OCc1ccccc1)C(C)C)C(=O)CF [z-VAD-FMK, reference compound] (Cbz-Val-Ala-Asp(OMe)-CH2F)
[2]
  effect of inhibitor pre-treatment on TAT-Pc 13-induced cell death: insensitive

## CN1C(=O)C(Cc2c[nH]c3ccccc23)NC1=S (stereo not drawn) [Necrostatin-1, reference compound]
[2]
  effect of inhibitor pre-treatment on TAT-Pc 13-induced cell death: prevented

## CC[C@H](C)[C@@H]1NC(=O)[C@H](CCCCN)NC(=O)[C@H](Cc2ccccc2)NC(=O)CNC(=O)[C@H](Cc2ccc(O)cc2)NC(=O)[C@H](CC(C)C)NC(=O)[C@H](CCCNC(=N)N)NC(=O)[C@@H](N)CSSC[C@@H](C(=O)O)NC(=O)CNC(=O)[C@H](Cc2c[nH]cn2)NC1=O [Pc 11 (CC)] (H-CRLYGFKIHGC-OH; disulfide 1-11)
[3]
  phosphorylation of CK2β in the holoenzyme: significantly affected
[3]; 15 min at 4 °C, then GST-Olig2 and 25 μM ATP for 5 min at room temperature
  Olig-2 phosphorylation: strong decrease

## O=C(O)c1ccc2c(c1)nc(Nc1cccc(Cl)c1)c1ccncc12 [CX-4945, 5-(3-chlorophenylamino)benzo[c][2,6]naphthyridine-8-carboxylic acid, reference compound]
[4]
  phosphorylation of p21: strongly inhibited
